{"source": "paper PMC10033409", "about": "“Autoregulation of GPCR signalling through the third intracellular loop” (Nature, 2023)", "key": {"β2AR": {"target": "β2AR (Homo sapiens, UniProt P07550)", "experiment": "Radiolabelled antagonist-binding assay (saturation);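 as to all read-outs here: membranes expressing β2AR constructs, equilibrated with radioligand on ice, bound ligand retained on GF/C filters, Bmax normalized to membrane protein from a DC assay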", "design": "HA; expressed in transfected cells; host or cells: crude membrane extracts of transfected cells; Bmax / 125I-Cyanopindolol saturation binding signal: unit not given here", "settings": "for Bmax / fmol 125I-Cyanopindolol/mg sample: replicates 1-3 and Average; for fmol 125I-Cyanopindolol/mg sample, Fit: fitted curve"}, "[1]": {"test_system": "β2AR–Gs peptide FRET sensor", "experiment": "∆FRET assay, β2AR–Gs peptide SPASM FRET sensor", "settings": "isoproterenol 100 µM"}, "[2]": {"settings": "Wild-Type + Gs-peptide, 125I-Cyanopindolol 0.000239059 nM"}, "[3]": {"settings": "Wild-Type + Gs-peptide, 125I-Cyanopindolol 0.0167722 nM"}, "[4]": {"settings": "Wild-Type + Gs-peptide, 125I-Cyanopindolol 0.0344858 nM"}, "[5]": {"settings": "Wild-Type + Gs-peptide, 125I-Cyanopindolol 0.073983 nM"}, "[6]": {"settings": "Wild-Type + Gs-peptide, 125I-Cyanopindolol 0.202201 nM"}, "[7]": {"settings": "Wild-Type + Gs-peptide, 125I-Cyanopindolol 0.415365 nM"}, "[8]": {"settings": "Wild-Type + Gs-peptide, 125I-Cyanopindolol 0.83063 nM"}, "[9]": {"settings": "Wild-Type + Gs-peptide, 125I-Cyanopindolol 1.64238 nM"}}, "note": "Values joined by “and” are separate entries in the source; they are usually repeats but may differ in a detail not shown here. Identical values can stand only once. Counter-ions that a name gives are not always drawn."}
{"compound": "[^125I](±)-cyanopindolol", "values": [{"measurement": "125I-Cyanopindolol saturation binding signal", "setting": "β2AR; Wild-Type + 30 µM Gq-peptide, 0.0283 nM, Average", "result": 147.58}, {"measurement": "125I-Cyanopindolol saturation binding signal", "setting": "β2AR; Wild-Type + 30 µM Gq-peptide, 0.0283 nM, Fit", "result": 291.67}, {"measurement": "125I-Cyanopindolol saturation binding signal", "setting": "β2AR; Wild-Type + 30 µM Gq-peptide, 0.0283 nM, experiments 1-3", "result": "132.79 and 160.83 and 149.12"}, {"measurement": "125I-Cyanopindolol saturation binding signal", "setting": "β2AR; Wild-Type + 30 µM Gq-peptide, 0.0474 nM, Average", "result": 534.47}, {"measurement": "125I-Cyanopindolol saturation binding signal", "setting": "β2AR; Wild-Type + 30 µM Gq-peptide, 0.0474 nM, Fit", "result": 446.28}, {"measurement": "125I-Cyanopindolol saturation binding signal", "setting": "β2AR; Wild-Type + 30 µM Gq-peptide, 0.0474 nM, experiments 1-3", "result": "334.07 and 648.49 and 620.85"}, {"measurement": "125I-Cyanopindolol saturation binding signal", "setting": "β2AR; Wild-Type + 30 µM Gq-peptide, 0.10 nM, Average", "result": 767.43}, {"measurement": "125I-Cyanopindolol saturation binding signal", "setting": "β2AR; Wild-Type + 30 µM Gq-peptide, 0.10 nM, Fit", "result": 753.07}, {"measurement": "125I-Cyanopindolol saturation binding signal", "setting": "β2AR; Wild-Type + 30 µM Gq-peptide, 1.85 nM, Average", "result": 1934.67}, {"measurement": "125I-Cyanopindolol saturation binding signal", "setting": "β2AR; Wild-Type + 30 µM Gq-peptide, 1.85 nM, Fit", "result": 1934.64}, {"measurement": "Bmax", "setting": "β2AR; Wild-Type + Gs-pep", "result": "2030.45 and 2045.98 and 1796.67"}, {"measurement": "Bmax", "setting": "β2AR; Wild-Type + Gs-pep, mean", "result": 1957.70}, {"measurement": "fmol 125I-Cyanopindolol/mg sample, Fit", "setting": "β2AR; [2]", "result": "0.00E+00", "unit": "fmol/mg sample"}, {"measurement": "fmol 125I-Cyanopindolol/mg sample", "setting": "β2AR; [2]", "result": "-0.7197 fmol/mg sample and 0.9706 fmol/mg sample and -1.162 fmol/mg sample"}, {"measurement": "fmol 125I-Cyanopindolol/mg sample", "setting": "β2AR; Wild-Type + Gs-peptide, 125I-Cyanopindolol 0.000239059 nM, mean", "result": -0.3038, "unit": "fmol/mg sample"}, {"measurement": "fmol 125I-Cyanopindolol/mg sample, Fit", "setting": "β2AR; [3]", "result": "4.58E+02", "unit": "fmol/mg sample"}, {"measurement": "fmol 125I-Cyanopindolol/mg sample", "setting": "β2AR; [3]", "result": "412.161 fmol/mg sample and 473.943 fmol/mg sample and 418.268 fmol/mg sample"}, {"measurement": "fmol 125I-Cyanopindolol/mg sample", "setting": "β2AR; Wild-Type + Gs-peptide, 125I-Cyanopindolol 0.0167722 nM, mean", "result": 434.79, "unit": "fmol/mg sample"}, {"measurement": "fmol 125I-Cyanopindolol/mg sample, Fit", "setting": "β2AR; [4]", "result": "7.83E+02", "unit": "fmol/mg sample"}, {"measurement": "fmol 125I-Cyanopindolol/mg sample", "setting": "β2AR; [4]", "result": "735.259 fmol/mg sample and 854.634 fmol/mg sample and 743.19 fmol/mg sample"}, {"measurement": "fmol 125I-Cyanopindolol/mg sample", "setting": "β2AR; Wild-Type + Gs-peptide, 125I-Cyanopindolol 0.0344858 nM, mean", "result": 777.694, "unit": "fmol/mg sample"}, {"measurement": "fmol 125I-Cyanopindolol/mg sample, Fit", "setting": "β2AR; [5]", "result": "1.18E+03", "unit": "fmol/mg sample"}, {"measurement": "fmol 125I-Cyanopindolol/mg sample", "setting": "β2AR; [5]", "result": "1168.59 fmol/mg sample and 1355.16 fmol/mg sample and 1153.34 fmol/mg sample"}, {"measurement": "fmol 125I-Cyanopindolol/mg sample", "setting": "β2AR; Wild-Type + Gs-peptide, 125I-Cyanopindolol 0.073983 nM, mean", "result": 1225.7, "unit": "fmol/mg sample"}, {"measurement": "fmol 125I-Cyanopindolol/mg sample, Fit", "setting": "β2AR; [6]", "result": "1.61E+03", "unit": "fmol/mg sample"}, {"measurement": "fmol 125I-Cyanopindolol/mg sample", "setting": "β2AR; [6]", "result": "1680.99 fmol/mg sample and 1767.57 fmol/mg sample and 1409.36 fmol/mg sample"}, {"measurement": "fmol 125I-Cyanopindolol/mg sample", "setting": "β2AR; Wild-Type + Gs-peptide, 125I-Cyanopindolol 0.202201 nM, mean", "result": 1619.31, "unit": "fmol/mg sample"}, {"measurement": "fmol 125I-Cyanopindolol/mg sample, Fit", "setting": "β2AR; [7]", "result": "1.79E+03", "unit": "fmol/mg sample"}, {"measurement": "fmol 125I-Cyanopindolol/mg sample", "setting": "β2AR; [7]", "result": "1709.61 fmol/mg sample and 1882.35 fmol/mg sample and 1548.71 fmol/mg sample"}, {"measurement": "fmol 125I-Cyanopindolol/mg sample", "setting": "β2AR; Wild-Type + Gs-peptide, 125I-Cyanopindolol 0.415365 nM, mean", "result": 1713.56, "unit": "fmol/mg sample"}, {"measurement": "fmol 125I-Cyanopindolol/mg sample, Fit", "setting": "β2AR; [8]", "result": "1.88E+03", "unit": "fmol/mg sample"}, {"measurement": "fmol 125I-Cyanopindolol/mg sample", "setting": "β2AR; [8]", "result": "1837.2 fmol/mg sample and 2069.95 fmol/mg sample and 1681.21 fmol/mg sample"}, {"measurement": "fmol 125I-Cyanopindolol/mg sample", "setting": "β2AR; Wild-Type + Gs-peptide, 125I-Cyanopindolol 0.83063 nM, mean", "result": 1862.79, "unit": "fmol/mg sample"}, {"measurement": "fmol 125I-Cyanopindolol/mg sample, Fit", "setting": "β2AR; [9]", "result": "1.93E+03", "unit": "fmol/mg sample"}, {"measurement": "fmol 125I-Cyanopindolol/mg sample", "setting": "β2AR; [9]", "result": "2102.36 fmol/mg sample and 2003.58 fmol/mg sample and 1852.88 fmol/mg sample"}, {"measurement": "fmol 125I-Cyanopindolol/mg sample", "setting": "β2AR; Wild-Type + Gs-peptide, 125I-Cyanopindolol 1.64238 nM, mean", "result": 1986.27, "unit": "fmol/mg sample"}, {"measurement": "125I-Cyanopindolol saturation binding signal", "setting": "β2AR; Wild-Type, 0.0283 nM, Average", "result": 144.50}, {"measurement": "125I-Cyanopindolol saturation binding signal", "setting": "β2AR; Wild-Type, 0.0283 nM, Fit", "result": 400.71}, {"measurement": "125I-Cyanopindolol saturation binding signal", "setting": "β2AR; Wild-Type, 0.0474 nM, Average", "result": 627.51}, {"measurement": "125I-Cyanopindolol saturation binding signal", "setting": "β2AR; Wild-Type, 0.0474 nM, Fit", "result": 590.99}, {"measurement": "125I-Cyanopindolol saturation binding signal", "setting": "β2AR; Wild-Type, 0.10 nM, Average", "result": 1200.07}, {"measurement": "125I-Cyanopindolol saturation binding signal", "setting": "β2AR; Wild-Type, 0.10 nM, Fit", "result": 964.14}, {"measurement": "125I-Cyanopindolol saturation binding signal", "setting": "β2AR; Wild-Type, 1.85 nM, Average", "result": 2740.91}, {"measurement": "125I-Cyanopindolol saturation binding signal", "setting": "β2AR; Wild-Type, 1.85 nM, Fit", "result": 2640.83}, {"measurement": "125I-Cyanopindolol saturation binding signal", "setting": "β2AR; Wild-Type, 1.85 nM, experiments 1-3", "result": "2770.91 and 2891.39 and 2560.43"}, {"measurement": "fmol 125I-Cyanopindolol/mg sample, Fit", "setting": "β2AR; Wild-Type, 125I-Cyanopindolol 0.0198458 nM (Average)", "result": "3.84E+02", "unit": "fmol/mg sample"}, {"measurement": "fmol 125I-Cyanopindolol/mg sample, Fit", "setting": "β2AR; Wild-Type, 125I-Cyanopindolol 0.0420593 nM (Average)", "result": "7.28E+02", "unit": "fmol/mg sample"}, {"measurement": "fmol 125I-Cyanopindolol/mg sample, Fit", "setting": "β2AR; Wild-Type, 125I-Cyanopindolol 0.234223 nM (Average)", "result": "1.65E+03", "unit": "fmol/mg sample"}, {"measurement": "fmol 125I-Cyanopindolol/mg sample, Fit", "setting": "β2AR; Wild-Type, 125I-Cyanopindolol 0.468204 nM (Average)", "result": "1.86E+03", "unit": "fmol/mg sample"}, {"measurement": "fmol 125I-Cyanopindolol/mg sample, Fit", "setting": "β2AR; Wild-Type, 125I-Cyanopindolol 0.871756 nM (Average)", "result": "1.97E+03", "unit": "fmol/mg sample"}, {"measurement": "fmol 125I-Cyanopindolol/mg sample, Fit", "setting": "β2AR; Wild-Type, 125I-Cyanopindolol 1.70257 nM (Average)", "result": "2.02E+03", "unit": "fmol/mg sample"}, {"measurement": "Bmax", "setting": "β2AR; Wild-Type", "result": "2241.12 and 1916.49 and 2106.37"}, {"measurement": "Bmax", "setting": "β2AR; Wild-Type, mean", "result": 2087.99}]}
{"compound": "CC(C)NCC(O)c1ccc(O)c(O)c1", "note": "(stereo not drawn) [Isoproterenol, isoproterenol (+)-bitartrate salt]", "values": [{"measurement": "∆FRET (Isoproterenol - Buffer)", "setting": "[1]; HVQ-AAA β2AR–Gs peptide sensor, single experiments N 1-5", "result": "0.012 and 0.013 and 0.020"}, {"measurement": "∆FRET (Isoproterenol - Buffer)", "setting": "[1]; QDG-AAA β2AR–Gs peptide sensor, single experiments N 1-5", "result": "0.021 and 0.017 and 0.027 and 0.030"}, {"measurement": "∆FRET (Isoproterenol - Buffer)", "setting": "[1]; Wild-Type β2AR–Gs peptide sensor, + 10 µM Gq-peptide, single samples", "result": "0.034 and 0.026 and 0.018"}, {"measurement": "∆FRET (Isoproterenol - Buffer)", "setting": "[1]; Wild-Type β2AR–Gs peptide sensor, single experiments N 1-5", "result": "0.014 and 0.016 and 0.017 and 0.019"}, {"measurement": "∆FRET (Isoproterenol - Buffer)", "setting": "[1]; Wild-Type β2AR–Gs peptide sensor, without Gq-peptide, single samples", "result": "0.013 and 0.016 and 0.010 and 0.017 and 0.012"}, {"measurement": "∆FRET (Isoproterenol - Buffer)", "setting": "[1]; ∆ICL3 β2AR–Gs peptide sensor, without Gq-peptide, single samples", "result": "0.022 and 0.020 and 0.025 and 0.024"}]}
